This note sets out measurements from ChEMBL document CHEMBL1156596, “Overcoming undesirable CYP1A2 inhibition of pyridylnaphthalene-type aldosterone synthase inhibitors: influence of heteroaryl derivatization on potency and selectivity” (J Med Chem, 2008).

The species entered for data set [1] is Homo sapiens. Briefly: Selectivity ratio of IC50 for human CYP11B1 to IC50 for human CYP11B2.
In data set [2] the target is T1, CYP1A2 (Homo sapiens, UniProt P05177).
T1 sequence (P05177 whole entry): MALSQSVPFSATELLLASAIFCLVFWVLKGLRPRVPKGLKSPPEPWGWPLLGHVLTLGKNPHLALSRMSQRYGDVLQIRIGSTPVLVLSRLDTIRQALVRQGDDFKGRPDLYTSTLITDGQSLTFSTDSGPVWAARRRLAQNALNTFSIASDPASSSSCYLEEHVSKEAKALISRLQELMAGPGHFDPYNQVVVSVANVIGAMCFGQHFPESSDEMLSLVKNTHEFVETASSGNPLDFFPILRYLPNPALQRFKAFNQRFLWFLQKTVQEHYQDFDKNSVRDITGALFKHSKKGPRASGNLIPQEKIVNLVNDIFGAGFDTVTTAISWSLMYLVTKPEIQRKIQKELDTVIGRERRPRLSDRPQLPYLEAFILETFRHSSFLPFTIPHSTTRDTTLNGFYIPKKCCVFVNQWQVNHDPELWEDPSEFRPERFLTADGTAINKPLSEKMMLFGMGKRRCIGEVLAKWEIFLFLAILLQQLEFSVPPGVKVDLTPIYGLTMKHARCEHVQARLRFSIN
Briefly: Inhibition of human recombinant CYP1A2 expressed in insect microsomes at 2 uM. The data set is classed as ADME, Microsome.

The target of data set [3] is T2, Cytochrome P450 11B2, mitochondrial (Homo sapiens, UniProt P19099).
T2 sequence (P19099 whole entry): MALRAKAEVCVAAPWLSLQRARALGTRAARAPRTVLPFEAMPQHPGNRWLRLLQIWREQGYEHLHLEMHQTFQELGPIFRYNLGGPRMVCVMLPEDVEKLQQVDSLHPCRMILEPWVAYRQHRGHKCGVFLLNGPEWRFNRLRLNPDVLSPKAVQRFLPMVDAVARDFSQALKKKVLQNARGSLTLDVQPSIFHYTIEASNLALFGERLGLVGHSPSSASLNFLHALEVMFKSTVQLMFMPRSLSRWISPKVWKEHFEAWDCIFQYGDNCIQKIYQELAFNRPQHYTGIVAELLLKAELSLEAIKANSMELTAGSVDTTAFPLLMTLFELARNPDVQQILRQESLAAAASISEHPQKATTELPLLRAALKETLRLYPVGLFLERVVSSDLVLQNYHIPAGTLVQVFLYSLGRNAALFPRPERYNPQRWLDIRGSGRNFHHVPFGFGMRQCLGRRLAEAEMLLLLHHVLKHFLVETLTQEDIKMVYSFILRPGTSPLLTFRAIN

Data set [4] has as its target T3, Cytochrome P450 11B1, mitochondrial (Homo sapiens, UniProt P15538).
T3 sequence (P15538 whole entry): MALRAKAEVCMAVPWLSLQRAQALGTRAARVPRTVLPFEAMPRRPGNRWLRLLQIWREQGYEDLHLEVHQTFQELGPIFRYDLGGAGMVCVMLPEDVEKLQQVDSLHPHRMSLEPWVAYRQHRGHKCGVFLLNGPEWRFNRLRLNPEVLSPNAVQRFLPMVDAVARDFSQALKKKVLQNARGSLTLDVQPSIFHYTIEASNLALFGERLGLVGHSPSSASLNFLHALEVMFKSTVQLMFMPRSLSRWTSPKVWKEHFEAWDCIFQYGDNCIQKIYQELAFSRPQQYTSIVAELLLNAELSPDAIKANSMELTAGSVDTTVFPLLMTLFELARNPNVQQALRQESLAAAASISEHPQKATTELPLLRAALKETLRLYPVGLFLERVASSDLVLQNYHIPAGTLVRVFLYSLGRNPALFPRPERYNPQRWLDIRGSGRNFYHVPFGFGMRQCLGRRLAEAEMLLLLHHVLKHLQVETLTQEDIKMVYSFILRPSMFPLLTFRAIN

The term inhibition denotes the drop in the measured response relative to a control, in per cent. Broadly, the IC50 is the concentration that gives 50% inhibition. A higher IC50 goes with a need for much substance. In the case of `COc1ccc2cc(-c3cnccc3C)ccc2c1`, in data set [1], the Ratio IC50 is 143. In addition, in data set [2], the inhibition at 2 µM amounted to 98%. The half-inhibitory concentration (IC50) in data set [3] was determined as 0.8 nM; in data set [4] it was 114 nM.

For `COc1ccc2c(c1)CCC(c1cccnc1)=C2`, the inhibition at 2 µM in data set [2] is 98%.

As for `COc1ccc2cc(-c3cncc(C(C)OC)c3)ccc2c1` (stereo not drawn), in data set [1], the Ratio IC50 is 50. Besides, the IC50 is 0.2 nM in data set [3] and 10 nM in data set [4].

With `N#Cc1ccc2c(c1)CCC(c1cccnc1)=C2`, the Ratio IC50 in data set [1] was found to be 103. Also, in data set [2], the inhibition at 2 µM came out at 91%. In addition, the IC50 in data set [3] came out at 4.5 nM; in data set [4], 461 nM.

For the molecule `COc1ccc2cc(-c3cncc(CC(=O)O)c3)ccc2c1`, the Ratio IC50 in data set [1] turned out to be 31. The IC50 was 1220 nM in data set [3] and 37800 nM in data set [4].

As for `Cc1nc2c([nH]1)c(=O)n(C)c(=O)n2Cc1ccco1` [FURAFYLLINE], the inhibition at 2 µM in data set [2] was 55%.

Turning to `COCc1ccncc1-c1ccc2cc(OC)ccc2c1`, in data set [1], the Ratio IC50 turned out to be 198. In addition, the inhibition at 2 µM in data set [2] amounted to 97%. Further, the concentration for half-maximal inhibition (IC50) in data set [3] came to 2.2 nM; in data set [4], 435 nM.

With `COc1ccc2cc(-c3cncc(C(C)O)c3)ccc2c1` (stereo not drawn), the Ratio IC50 in data set [1] was 198. In addition, the inhibition at 2 µM in data set [2] worked out at 78%. Further, the IC50 in data set [3] was determined as 0.5 nM; in data set [4], 99 nM.

`COc1ccc2cc(-c3cncc(CO)c3)ccc2c1`: the Ratio IC50 in data set [1] turned out to be 68. Moreover, the inhibition at 2 µM in data set [2] amounted to 93%. The IC50 in data set [3] amounted to 9.1 nM; in data set [4], 614 nM.

Regarding `COCc1cncc(-c2ccc3cc(OC)ccc3c2)c1`, the Ratio IC50 in data set [1] is 155. The inhibition at 2 µM in data set [2] was 83%. In addition, the values for the IC50 in data set [3] and in data set [4] were 0.2 nM and 31 nM, respectively.

On to `COC(=O)c1cncc(-c2ccc3cc(OC)ccc3c2)c1`, for which, in data set [1], the Ratio IC50 was found to be 19. The half-maximal inhibitory concentration (IC50) in data set [3] was determined as 0.8 nM; in data set [4], 15 nM.

Turning to `COc1ccc2cc(-c3cncc4ccccc34)c(C)cc2c1`, the Ratio IC50 in data set [1] is 272. In addition, the inhibition at 2 µM in data set [2] turned out to be 45%. Besides, the IC50 is 3.1 nM in data set [3] and 843 nM in data set [4].

As to `COc1cncc(C2=Cc3ccc(OC)cc3CC2C)c1` (stereo not drawn), the Ratio IC50 in data set [1] amounted to 83. Besides, the inhibition at 2 µM in data set [2] came out at 18%. For the same molecule, the IC50 in data set [3] stood at 1.2 nM; in data set [4], 100 nM.

Turning to `COc1ccc2cc(-c3cccnc3)c(C)cc2c1`, in data set [1], the Ratio IC50 was 150. In addition, in data set [2], the inhibition at 2 µM worked out at 93%. Further, the figures for the IC50 in data set [3] and in data set [4] were 7 nM and 1050 nM, respectively.

On to `CCOc1cncc(-c2ccc3cc(OC)ccc3c2)c1`, for which the Ratio IC50 in data set [1] worked out at 73. Moreover, in data set [2], the inhibition at 2 µM worked out at 85%. The values for the IC50 in data set [3] and in data set [4] were 5.1 nM and 373 nM, respectively.

In the case of `Cc1ccncc1-c1ccc2cc(C#N)ccc2c1`, in data set [1], the Ratio IC50 came to 87. Besides, in data set [2], the inhibition at 2 µM was 86%. For the same molecule, the IC50 was 0.6 nM in data set [3] and 52 nM in data set [4].

On to `COc1ccc2c(c1)CC(C)C(c1cncc3ccccc13)=C2` (stereo not drawn), for which the Ratio IC50 in data set [1] amounted to 128. Moreover, in data set [2], the inhibition at 2 µM came to 6%. Also, the results for the half-maximal inhibitory concentration (IC50) in data set [3] and in data set [4] were 0.5 nM and 64 nM, respectively.

On to `COc1ccc2cc(-c3cnccc3CO)ccc2c1`, for which the Ratio IC50 in data set [1] turned out to be 80. The inhibition at 2 µM in data set [2] was 92%. The IC50 in data set [3] amounted to 22 nM; in data set [4] it was 1760 nM.

Take `COC(=O)Cc1cncc(-c2ccc3cc(OC)ccc3c2)c1`: the Ratio IC50 in data set [1] turned out to be 29. Further, the IC50 was determined as 6.9 nM in data set [3] and 199 nM in data set [4].

Regarding `COc1ccc2cc(-c3cncc(O)c3)ccc2c1`, in data set [1], the Ratio IC50 amounted to 95. For the same molecule, in data set [2], the inhibition at 2 µM turned out to be 93%. Also, the half-inhibitory concentration (IC50) in data set [3] amounted to 94 nM; in data set [4], 8920 nM.

For `COc1cncc(-c2cc3ccc(OC)cc3cc2C)c1`, the Ratio IC50 in data set [1] was determined as 230. The inhibition at 2 µM in data set [2] came out at 91%. Moreover, the IC50 in data set [3] came to 3.8 nM; in data set [4] it was 875 nM.

As for `COc1ccc2cc(-c3cncc(-c4ccccc4)c3)ccc2c1`, the Ratio IC50 in data set [1] turned out to be 32. Further, the results for the 50% inhibitory concentration (IC50) in data set [3] and in data set [4] were 4.8 nM and 151 nM, respectively.

Take `COc1ccc2c(c1)CC(C)C(c1cccnc1)=C2` (stereo not drawn): in data set [1], the Ratio IC50 stood at 79. Moreover, the inhibition at 2 µM in data set [2] was 73%. Besides, in data set [3], the midpoint of inhibition, the IC50, lay at 3.3 nM.

`COc1ccc2cc(-c3cncc(C(N)=O)c3)ccc2c1`: the Ratio IC50 in data set [1] was 442. In addition, the values for the half-inhibitory concentration (IC50) in data set [3] and in data set [4] were 94 nM and 41600 nM, respectively.
